# Test results as given in ChEMBL document CHEMBL4265937, “Branched pentapeptides as potent inhibitors of the vascular endothelial growth factor 165 binding to Neuropilin-1: Design, synthesis and biological activity” (Eur J Med Chem, 2018).
# Non-standard residues stand in square brackets, D forms with d. Residues, ends and D or L forms follow the SMILES beside them. *: point of attachment. X1 = N=C(N)NCCCCCCCCCCC(=O)*; X2 = N=C(N)NCCCCCCC(=O)*; Dab = NCC[C@H](N)C(=O)O
# Experiments:
# [1] = target: Neuropilin-1 (Rattus norvegicus) (UniProt Q9QWJ9); assay: Inhibition of biotinylated VEGF-A165 binding to rat NRP1/FC chimera at 1 uM after 40 mins by ELISA relative to control
# [2] = target: Neuropilin-1 (Rattus norvegicus) (UniProt Q9QWJ9); assay: Inhibition of biotinylated VEGF-A165 binding to rat NRP1/FC chimera at 0.3 uM after 40 mins by ELISA relative to control
# Neuropilin-1 [3] = target: Neuropilin-1 (Homo sapiens, UniProt O14786); assay: Inhibition of biotinylated VEGF165 binding to NRP1 (unknown origin) by ELISA
# Neuropilin-1 [4] = target: Neuropilin-1 (Rattus norvegicus, UniProt Q9QWJ9); assay: Inhibition of biotinylated VEGF-A165 binding to rat NRP1/FC chimera after 40 mins by ELISA
# [5] = Half life in human plasma at 0.9 umol/ml by LC-MS analysis; type: ADME, cell-free
# [6] = target: Neuropilin-1 (Rattus norvegicus) (UniProt Q9QWJ9); assay: Inhibition of biotinylated VEGF-A165 binding to rat NRP1/FC chimera at 10 uM after 40 mins by ELISA relative to control
# Chain of Neuropilin-1 (Homo sapiens, UniProt O14786) (O14786 whole entry): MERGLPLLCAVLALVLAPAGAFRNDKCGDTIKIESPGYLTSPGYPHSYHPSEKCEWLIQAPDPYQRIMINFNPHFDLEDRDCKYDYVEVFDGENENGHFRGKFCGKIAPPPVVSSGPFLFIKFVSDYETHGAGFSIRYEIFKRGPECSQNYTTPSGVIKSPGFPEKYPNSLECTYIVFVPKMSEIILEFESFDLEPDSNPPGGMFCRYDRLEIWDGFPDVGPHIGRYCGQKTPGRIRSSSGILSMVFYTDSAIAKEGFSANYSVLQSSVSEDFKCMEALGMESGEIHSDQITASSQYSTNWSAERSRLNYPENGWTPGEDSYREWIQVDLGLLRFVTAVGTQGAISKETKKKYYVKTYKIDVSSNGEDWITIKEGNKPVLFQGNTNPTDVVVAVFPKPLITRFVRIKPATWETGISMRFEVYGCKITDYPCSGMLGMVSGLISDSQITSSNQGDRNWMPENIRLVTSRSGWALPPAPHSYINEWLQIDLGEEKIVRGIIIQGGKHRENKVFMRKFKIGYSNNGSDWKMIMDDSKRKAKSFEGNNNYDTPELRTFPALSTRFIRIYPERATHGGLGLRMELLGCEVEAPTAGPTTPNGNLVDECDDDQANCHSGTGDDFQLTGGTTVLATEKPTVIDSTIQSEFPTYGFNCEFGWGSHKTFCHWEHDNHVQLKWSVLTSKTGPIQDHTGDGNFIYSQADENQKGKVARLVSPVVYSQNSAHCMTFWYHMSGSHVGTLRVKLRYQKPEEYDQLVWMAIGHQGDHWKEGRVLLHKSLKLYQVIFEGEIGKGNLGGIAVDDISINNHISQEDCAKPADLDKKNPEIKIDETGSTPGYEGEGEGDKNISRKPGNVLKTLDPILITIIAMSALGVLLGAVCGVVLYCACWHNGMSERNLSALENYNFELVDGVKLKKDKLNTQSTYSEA
Compound,inhibition [1],inhibition [2],also measured
N=C(N)NCCCCCCCCCCC(=O)NCCCC[C@H](N)C(=O)N1CCC[C@H]1C(=O)N[C@@H](CCN)C(=O)N[C@@H](CCCNC(=N)N)C(=O)O (H-K(X1)P[Dab]R-OH),35.5%,12.1%,
N=C(N)NCCCCCCC(=O)NCCCC[C@H](N)C(=O)N1CCC[C@H]1C(=O)N[C@@H](CCN)C(=O)N[C@@H](CCCNC(=N)N)C(=O)O (H-K(X2)P[Dab]R-OH),44.7%,25.5%,
N=C(N)NCCC[C@H](NC(=O)[C@@H]1CCCN1C(=O)[C@@H]1CCCN1C(=O)[C@@H](N)CCCCN)C(=O)O (H-KPPR-OH),15.4%,10.1%,IC50 (Neuropilin-1 [3]): 4600 nM
"C[C@H](NC(=O)[C@H](C)NC(=O)[C@@H](N)CCCCNC(=O)C(N)CCCCN=C(N)N)C(=O)N[C@@H](CCCNC(=N)N)C(=O)O (stereo partly drawn) (HELM PEPTIDE1{K.A.A.R}|PEPTIDE2{[N=C(N)NCCCCC(N)C(=O)[*:2]]}$PEPTIDE1,PEPTIDE2,1:R3-1:R2$$$V2.0)",48.9%,16.9%,
"C[C@H](NC(=O)[C@@H](N)CCCCNC(=O)C(N)CCCCN=C(N)N)C(=O)N1CCC[C@H]1C(=O)N[C@@H](CCCNC(=N)N)C(=O)O (stereo partly drawn) (HELM PEPTIDE1{K.A.P.R}|PEPTIDE2{[N=C(N)NCCCCC(N)C(=O)[*:2]]}$PEPTIDE1,PEPTIDE2,1:R3-1:R2$$$V2.0)",20%,3.9%,
"C[C@H](NC(=O)[C@H](CCCCN)NC(=O)[C@@H](N)CCCCNC(=O)C(N)CCCCN=C(N)N)C(=O)N[C@@H](CCCNC(=N)N)C(=O)O (stereo partly drawn) (HELM PEPTIDE1{K.K.A.R}|PEPTIDE2{[N=C(N)NCCCCC(N)C(=O)[*:2]]}$PEPTIDE1,PEPTIDE2,1:R3-1:R2$$$V2.0)",22.2%,,
"N=C(N)NCCC[C@H](NC(=O)[C@@H]1CCCN1C(=O)[C@H](CCCCN)NC(=O)[C@@H](N)CCCCNC(=O)C(N)CCCCN=C(N)N)C(=O)O (stereo partly drawn) (HELM PEPTIDE1{K.K.P.R}|PEPTIDE2{[N=C(N)NCCCCC(N)C(=O)[*:2]]}$PEPTIDE1,PEPTIDE2,1:R3-1:R2$$$V2.0)",22.1%,,
"C[C@H](NC(=O)[C@@H]1CCCN1C(=O)[C@@H](N)CCCCNC(=O)C(N)CCCCN=C(N)N)C(=O)N[C@@H](CCCNC(=N)N)C(=O)O (stereo partly drawn) (HELM PEPTIDE1{K.P.A.R}|PEPTIDE2{[N=C(N)NCCCCC(N)C(=O)[*:2]]}$PEPTIDE1,PEPTIDE2,1:R3-1:R2$$$V2.0)",77.5%,54.2%,IC50 (Neuropilin-1 [4]; read-out: IC50): 300 nM; half-life at 900 µM [5]: 0.65 h
"N=C(N)NCCC[C@H](NC(=O)[C@@H]1CCCN1C(=O)[C@@H]1CCCN1C(=O)[C@@H](N)CCCCNC(=O)C(N)CCCCN=C(N)N)C(=O)O (stereo partly drawn) (HELM PEPTIDE1{K.P.P.R}|PEPTIDE2{[N=C(N)NCCCCC(N)C(=O)[*:2]]}$PEPTIDE1,PEPTIDE2,1:R3-1:R2$$$V2.0)",41.4%,4.7%,IC50 (Neuropilin-1 [4]; read-out: IC50): 1000 nM
"N=C(N)NCCC[C@H](NC(=O)[C@@H]1CCCN1C(=O)[C@@H](N)CCCCNC(=O)C(N)CCCCN=C(N)N)C(=O)O (stereo partly drawn) (HELM PEPTIDE1{K.P.R}|PEPTIDE2{[N=C(N)NCCCCC(N)C(=O)[*:2]]}$PEPTIDE1,PEPTIDE2,1:R3-1:R2$$$V2.0)",,,inhibition [6]: 47.8%
"N=C(N)NCCCC(N)C(=O)NCCCC[C@H](N)C(=O)N1CCC[C@H]1C(=O)N[C@@H](CCN)C(=O)N[C@@H](CCCNC(=N)N)C(=O)O (stereo partly drawn) (HELM PEPTIDE1{K.P.[Dab].R}|PEPTIDE2{[N=C(N)NCCCC(N)C(=O)[*:2]]}$PEPTIDE1,PEPTIDE2,1:R3-1:R2$$$V2.0)",39.9%,8%,
"C[C@H](NC(=O)[C@H](CCN)NC(=O)[C@@H](N)CCCCNC(=O)C(N)CCCCN=C(N)N)C(=O)N[C@@H](CCCNC(=N)N)C(=O)O (stereo partly drawn) (HELM PEPTIDE1{K.[Dab].A.R}|PEPTIDE2{[N=C(N)NCCCCC(N)C(=O)[*:2]]}$PEPTIDE1,PEPTIDE2,1:R3-1:R2$$$V2.0)",47.3%,16.1%,
"C[C@H](NC(=O)[C@H](CN)NC(=O)[C@@H](N)CCCCNC(=O)C(N)CCCCN=C(N)N)C(=O)N[C@@H](CCCNC(=N)N)C(=O)O (stereo partly drawn) (HELM PEPTIDE1{K.[NC[C@H](N[*:1])C(=O)[*:2]].A.R}|PEPTIDE2{[N=C(N)NCCCCC(N)C(=O)[*:2]]}$PEPTIDE1,PEPTIDE2,1:R3-1:R2$$$V2.0)",25%,14.1%,
"C[C@H](NC(=O)[C@H](CCCN)NC(=O)[C@@H](N)CCCCNC(=O)C(N)CCCCN=C(N)N)C(=O)N[C@@H](CCCNC(=N)N)C(=O)O (stereo partly drawn) (HELM PEPTIDE1{K.[Orn].A.R}|PEPTIDE2{[N=C(N)NCCCCC(N)C(=O)[*:2]]}$PEPTIDE1,PEPTIDE2,1:R3-1:R2$$$V2.0)",15.6%,,
"N=C(N)NCCC[C@H](NC(=O)[C@@H]1CCCN1C(=O)[C@H](CCCN)NC(=O)[C@@H](N)CCCCNC(=O)C(N)CCCCN=C(N)N)C(=O)O (stereo partly drawn) (HELM PEPTIDE1{K.[Orn].P.R}|PEPTIDE2{[N=C(N)NCCCCC(N)C(=O)[*:2]]}$PEPTIDE1,PEPTIDE2,1:R3-1:R2$$$V2.0)",38%,10.4%,
N=C(N)NCCC[C@H](NC(=O)[C@@H]1CCCN1C(=O)C(CCN)NC(=O)[C@@H](N)CCCCN=C(N)N)C(=O)O (stereo partly drawn) (HELM PEPTIDE1{[N=C(N)NCCCC[C@H](N)C(=O)[*:2]].[NCCC(N[*:1])C(=O)[*:2]].P.R}$$$$V2.0),,,IC50 (Neuropilin-1 [3]): 800 nM
"N=C(N)NCCCC(N)C(=O)NCCC[C@H](N)C(=O)N1CCC[C@H]1C(=O)N[C@@H](CCN)C(=O)N[C@@H](CCCNC(=N)N)C(=O)O (stereo partly drawn) (HELM PEPTIDE1{[Orn].P.[Dab].R}|PEPTIDE2{[N=C(N)NCCCC(N)C(=O)[*:2]]}$PEPTIDE1,PEPTIDE2,1:R3-1:R2$$$V2.0)",40.3%,2.8%,

# Continued, in another order:
inhibition [1],inhibition [2],Compound,also measured
22.4%,20.6%,"N=C(N)NCCC[C@H](NC(=O)[C@H](CCCCN)NC(=O)[C@@H]1CCCN1C(=O)[C@@H](N)CCCCNC(=O)C(N)CCCCN=C(N)N)C(=O)O (stereo partly drawn) (HELM PEPTIDE1{K.P.K.R}|PEPTIDE2{[N=C(N)NCCCCC(N)C(=O)[*:2]]}$PEPTIDE1,PEPTIDE2,1:R3-1:R2$$$V2.0)",
28%,5.7%,"N=C(N)NCCC[C@H](NC(=O)[C@H](CCN)NC(=O)[C@@H]1CCCN1C(=O)[C@@H](N)CCCCNC(=O)C(N)CCNC(=N)N)C(=O)O (stereo partly drawn) (HELM PEPTIDE1{K.P.[Dab].R}|PEPTIDE2{[N=C(N)NCCC(N)C(=O)[*:2]]}$PEPTIDE1,PEPTIDE2,1:R3-1:R2$$$V2.0)",
82.6%,62.2%,"N=C(N)NCCC[C@H](NC(=O)[C@H](CCN)NC(=O)[C@@H]1CCCN1C(=O)[C@@H](N)CCCCNC(=O)C(N)CCCCN=C(N)N)C(=O)O (stereo partly drawn) (HELM PEPTIDE1{K.P.[Dab].R}|PEPTIDE2{[N=C(N)NCCCCC(N)C(=O)[*:2]]}$PEPTIDE1,PEPTIDE2,1:R3-1:R2$$$V2.0)",IC50 (Neuropilin-1 [4]; read-out: IC50): 200 nM; IC50 (Neuropilin-1 [4]; read-out: pIC50 (converted)): 240 nM; half-life at 900 µM [5]: 0.733 h
23.6%,18.4%,"N=C(N)NCCC[C@H](NC(=O)[C@H](CN)NC(=O)[C@@H]1CCCN1C(=O)[C@@H](N)CCCCNC(=O)C(N)CCCCN=C(N)N)C(=O)O (stereo partly drawn) (HELM PEPTIDE1{K.P.[NC[C@H](N[*:1])C(=O)[*:2]].R}|PEPTIDE2{[N=C(N)NCCCCC(N)C(=O)[*:2]]}$PEPTIDE1,PEPTIDE2,1:R3-1:R2$$$V2.0)",
17.8%,11.1%,"N=C(N)NCCC[C@H](NC(=O)[C@H](CCCN)NC(=O)[C@@H]1CCCN1C(=O)[C@@H](N)CCCCNC(=O)C(N)CCCCN=C(N)N)C(=O)O (stereo partly drawn) (HELM PEPTIDE1{K.P.[Orn].R}|PEPTIDE2{[N=C(N)NCCCCC(N)C(=O)[*:2]]}$PEPTIDE1,PEPTIDE2,1:R3-1:R2$$$V2.0)",
83.7%,59.6%,"N=C(N)NCCC[C@H](NC(=O)[C@@H]1CCCN1C(=O)[C@H](CCN)NC(=O)[C@@H](N)CCCCNC(=O)C(N)CCCCN=C(N)N)C(=O)O (stereo partly drawn) (HELM PEPTIDE1{K.[Dab].P.R}|PEPTIDE2{[N=C(N)NCCCCC(N)C(=O)[*:2]]}$PEPTIDE1,PEPTIDE2,1:R3-1:R2$$$V2.0)",IC50 (Neuropilin-1 [4]; read-out: IC50): 200 nM; half-life at 900 µM [5]: 41 h
82%,59.4%,"N=C(N)NCCC[C@H](NC(=O)[C@@H]1CCCN1C(=O)[C@H](CN)NC(=O)[C@@H](N)CCCCNC(=O)C(N)CCCCN=C(N)N)C(=O)O (stereo partly drawn) (HELM PEPTIDE1{K.[NC[C@H](N[*:1])C(=O)[*:2]].P.R}|PEPTIDE2{[N=C(N)NCCCCC(N)C(=O)[*:2]]}$PEPTIDE1,PEPTIDE2,1:R3-1:R2$$$V2.0)",IC50 (Neuropilin-1 [4]; read-out: IC50): 200 nM; half-life at 900 µM [5]: 34 h
41.4%,5.7%,"N=C(N)NCCC[C@H](NC(=O)[C@H](CCN)NC(=O)[C@@H]1CCCN1C(=O)[C@@H](N)CCNC(=O)C(N)CCCCN=C(N)N)C(=O)O (stereo partly drawn) (HELM PEPTIDE1{[Dab].P.[Dab].R}|PEPTIDE2{[N=C(N)NCCCCC(N)C(=O)[*:2]]}$PEPTIDE1,PEPTIDE2,1:R3-1:R2$$$V2.0)",
36.3%,17%,"N=C(N)NCCC[C@H](NC(=O)[C@H](CCN)NC(=O)[C@@H]1CCCN1C(=O)[C@@H](N)CCCNC(=O)C(N)CCCCN=C(N)N)C(=O)O (stereo partly drawn) (HELM PEPTIDE1{[Orn].P.[Dab].R}|PEPTIDE2{[N=C(N)NCCCCC(N)C(=O)[*:2]]}$PEPTIDE1,PEPTIDE2,1:R3-1:R2$$$V2.0)",
